The target of data set [1] is 5-HT2A receptor (Homo sapiens, UniProt P28223). Put plainly: Calcium ion mobility in cells stably expressing 5-HT2A receptors (Flp-In-CHO-5HT2A, FLIPR). Format: cell-based. Also noted: expressed in transfected cells. The settings on record: Flp-In-CHO-5HT2A stable pool, 5HT stimulation.
In data set [2] the target is T1, D3 receptor (Homo sapiens, UniProt P35462).
T1 construct: expressed in transfected cells
The data set can be described thus: cAMP content in cells stably expressing D3 receptors (CHO-D3, forskolin, HTRF). Format: cell-based. (In general: TR-FRET usually uses a lanthanide donor and a delayed reading to cut background.)

The nature of data set [3]: Pharmacokinetic assay in Balb/c mice (plasma and brain tissue). The settings on record: male, mouse, po, p.o. 5 mg/kg; for AUC(0-t): read-out: Area under curve AUC0-t; for Tmax: read-out: Peak time tmax; for Cmax: read-out: Plasma concentration Cmax; for AUC(0-inf): read-out: Area under curve AUC0-∞; for MRT: read-out: Average residence time MRT; for half-life: read-out: Half life t1/2 (converted). Format: in vivo. The method, then: Balb/c mice were used as test animals. The pharmacokinetic behavior in mouse body (plasma and brain tissue) of the compounds of Examples of the present invention was studied at an oral administration dose of 5 mg/kg.
Compounds of the Examples of the present invention, prepared by the applicant.
Male Balb/c mice (12 mice per group), purchased from Shanghai Jiesijie Laboratory Animal Co., LTD, with Certificate No.: SCXK (Shanghai) 2013-0006 N0.311620400001794.
The test compound was dissolved in 0.5% CMC-Na (1% Tween80) by sonication to formulate a clear solution or homogeneous suspension.
After an overnight fast, male Balb/c mice (12 mice per group) were administered p.o. with the test compound at an administration dose of 5 mg/kg and an administration volume of 10 mL/kg.
0.2 mL of blood was taken from the heart of the mouse before administration and at 1, 2, 4, 8 and 24 hours after administration, and the mice were sacrificed with CO2. The samples were stored in EDTA-K2 tubes, and centrifuged for 6 minutes at 4°C, 6000 rpm to separate the plasma. The plasma samples were stored at -80°C. Whole brain tissue was taken out, weighed, placed in a 2 mL centrifuge tube, and stored at -80°C.
• 1) 160 µL of acetonitrile was added to 40 µL of the plasma sample for precipitation, and then the mixture was centrifuged for 5 to 20 minutes at 3500 × g. • 2) 90 µL of acetonitrile containing internal standard (100 ng/mL) was added to 30 µL of the plasma and brain homogenate sample for precipitation, and then the mixture was centrifuged for 8 minutes at 13000 rpm. • 3) 70 µL of water was added to 70 µL of the treated supernatant and mixed by vortex for 10 minutes. 20 µL of the supernatant was taken to analyze the concentration of the test compound by LC/MS/MS. LC/MS/MS analytical instrument: AB Sciex API 4000 Qtrap.
• Liquid chromatography condition: Shimadzu LC-20AD pump • Chromatographic column: Agilent ZORBAX XDB-C18 (50×2.1 mm, 3.5 µm); Mobile phase: Eluent A was 0.1% formic acid in water, and Eluent B was acetonitrile • Flow rate: 0.4 mL/min • Elution time: 0-4.0 minutes, the eluent is as follows:
The main parameters of pharmacokinetics were calculated by WinNonlin 6.1. Table 17: Experimental results of pharmacokinetic assay in mice

Read-outs that look alike come from different tables or passages of the source.

T1 sequence (P35462 whole entry): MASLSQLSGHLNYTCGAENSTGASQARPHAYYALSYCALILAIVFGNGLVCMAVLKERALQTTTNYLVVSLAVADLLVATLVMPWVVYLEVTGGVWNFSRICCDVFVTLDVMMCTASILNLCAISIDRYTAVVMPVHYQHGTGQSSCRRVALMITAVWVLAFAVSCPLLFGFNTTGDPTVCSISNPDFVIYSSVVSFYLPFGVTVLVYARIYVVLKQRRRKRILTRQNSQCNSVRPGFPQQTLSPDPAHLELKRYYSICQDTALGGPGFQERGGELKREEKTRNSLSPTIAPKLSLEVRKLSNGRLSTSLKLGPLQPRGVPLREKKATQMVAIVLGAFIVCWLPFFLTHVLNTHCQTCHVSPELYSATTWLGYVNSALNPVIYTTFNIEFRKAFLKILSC
5-HT2A receptor, sequence (P28223 whole entry): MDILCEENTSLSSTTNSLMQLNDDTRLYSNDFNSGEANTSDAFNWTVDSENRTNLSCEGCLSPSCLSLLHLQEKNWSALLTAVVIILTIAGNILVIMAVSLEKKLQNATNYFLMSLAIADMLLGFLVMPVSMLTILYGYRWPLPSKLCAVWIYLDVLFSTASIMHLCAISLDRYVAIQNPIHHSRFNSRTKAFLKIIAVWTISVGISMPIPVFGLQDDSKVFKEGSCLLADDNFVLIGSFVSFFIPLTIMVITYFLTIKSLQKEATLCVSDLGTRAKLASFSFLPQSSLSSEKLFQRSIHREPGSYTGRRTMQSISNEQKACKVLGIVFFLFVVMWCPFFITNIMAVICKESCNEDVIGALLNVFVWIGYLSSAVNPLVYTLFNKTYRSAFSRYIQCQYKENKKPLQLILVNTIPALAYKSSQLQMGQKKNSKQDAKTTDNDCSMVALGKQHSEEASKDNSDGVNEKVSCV

In general, IC50 refers to the concentration at which inhibition is half-maximal. What is called EC50 is the midpoint of the concentration-response curve. In general, Tmax refers to the time at which the peak concentration occurs. As usually defined, the MRT is a mean duration of stay, worked out from the concentration-time curve. With `O=C(N[C@H]1C[C@H](CCN2CCN(c3cccc(Cl)c3Cl)CC2)C1)C1(O)CC1` [Example 6A, N-(Trans-3-(2-(4-(2,3-dichlorophenyl)piperazin-1-yl)ethyl)cyclobutyl)-1-hydroxycy clopropane-1-carboxamide], in data set [1], the IC50 stood at 3.07 nM. In data set [2], this molecule returned an EC50 of 0.6 nM. Further, in data set [3] (Brain), the AUC(0-t) was found to be 1080 ng·h/mL, the Tmax turned out to be 1 h and the Cmax was 321 ng/mL. Also, in data set [3] (Plasma), the AUC(0-t) was 1420 ng·h/mL, the AUC(0-inf) is 1440 ng·h/mL, the mean residence time MRT turned out to be 1.8 h and the half-life was 1.3 h. Besides, in data set [3] (Plasma), the Tmax is 0.5 h and the Cmax is 745 ng/mL.

On to `O=C(N[C@H]1C[C@H](CCN2CCN(c3cccc(Cl)c3Cl)CC2)C1)c1nccs1` [Example 7A, N-(Trans-3-(2-(4-(2,3-dichlorophenyl)piperazin-1-yl)ethyl)cyclobutyl)thiazole-2-car boxamide], for which the IC50 in data set [1] is 2.74 nM. This molecule also had an EC50 in data set [2] of 1 nM. Further, in data set [3] (Brain), the AUC(0-t) is 1350 ng·h/mL, the Tmax was 1 h and the Cmax was found to be 179 ng/mL. Moreover, in data set [3] (Plasma), the AUC(0-t) came out at 395 ng·h/mL, the AUC(0-inf) is 501 ng·h/mL, the MRT worked out at 5.3 h and the half-life was 3.7 h. Besides, in data set [3] (Plasma), the Tmax stood at 1 h and the Cmax came out at 102 ng/mL.

As for `O=C(NC1CC(CCN2CCN(c3cccc(Cl)c3Cl)CC2)C1)c1ncco1` (stereo not shown) [Example 12, N-(3-(2-(4-(2,3-Dichlorophenyl)piperazin-1-yl)ethyl)cyclobutyl)oxazole-2-carboxamide], the IC50 in data set [1] came to 5.2 nM. The molecule further had an EC50 in data set [2] of 1.7 nM. Besides, in data set [3] (Brain), the AUC(0-t) was 4830 ng·h/mL, the AUC(0-inf) was 4880 ng·h/mL, the Tmax was found to be 1 h and the Cmax was found to be 1200 ng/mL. For the same molecule, in data set [3] (Plasma), the AUC(0-t) was 1040 ng·h/mL, the AUC(0-inf) turned out to be 1230 ng·h/mL, the MRT worked out at 3.9 h and the half-life was 2.8 h. Also, in data set [3] (Plasma), the Tmax amounted to 0.5 h and the Cmax turned out to be 391 ng/mL.

In the case of `O=C(N[C@H]1C[C@H](CCN2CCN(c3cccc(Cl)c3Cl)CC2)C1)c1ncco1` [Example 12A, N-(Trans-3-(2-(4-(2,3-dichlorophenyl)piperazin-1-yl)ethyl)cyclobutyl)oxazole-2-car boxamide], the IC50 in data set [1] was 2.21 nM. Further, in data set [2], the EC50 came out at 0.6 nM. Besides, in data set [3] (Brain), the AUC(0-t) amounted to 8130 ng·h/mL, the Tmax is 1 h and the Cmax was found to be 1760 ng/mL. In addition, in data set [3] (Plasma), the AUC(0-t) amounted to 1840 ng·h/mL, the AUC(0-inf) is 1970 ng·h/mL, the MRT was 3.1 h and the half-life was 1.9 h. Moreover, in data set [3] (Plasma), the time of peak concentration (Tmax) came to 0.5 h and the Cmax stood at 673 ng/mL.

With `O=C(N[C@H]1C[C@@H](CCN2CCN(c3cccc(Cl)c3Cl)CC2)C1)c1ncco1` [Example 12B, N-(Cis-3-(2-(4-(2,3-dichlorophenyl)piperazin-1-yl)ethyl)cyclobutyl)oxazole-2-carbo xamide], in data set [1], the IC50 is 11.6 nM. This molecule also came in with an EC50 in data set [2] of 0.7 nM. Also, in data set [3] (Brain), the AUC(0-t) is 5200 ng·h/mL, the Tmax was 1 h and the Cmax is 1870 ng/mL. Moreover, in data set [3] (Plasma), the AUC(0-t) is 1620 ng·h/mL, the AUC(0-inf) is 1710 ng·h/mL, the mean residence time (MRT) came to 2.4 h and the half-life is 1.8 h. Also, in data set [3] (Plasma), the Tmax came out at 0.5 h and the Cmax came out at 715 ng/mL.

As to `O=C(N[C@H]1C[C@H](CCN2CCN(c3cccc(Cl)c3Cl)CC2)C1)c1cccc2ncccc12` [Example 19A, N-(Trans-3-(2-(4-(2,3-dichlorophenyl)piperazin-1-yl)ethyl)cyclobutyl)quinoline-5-c arboxamide], the IC50 in data set [1] amounted to 7.67 nM. In addition, the response in data set [2] was half-maximal at 1.6 nM (EC50). Moreover, in data set [3] (Brain), the AUC(0-t) was 1240 ng·h/mL, the Tmax came to 1 h and the Cmax turned out to be 372 ng/mL. In addition, in data set [3] (Plasma), the AUC(0-t) came to 456 ng·h/mL, the AUC(0-inf) was determined as 471 ng·h/mL, the MRT came to 1.8 h and the half-life is 1.7 h. In data set [3] (Plasma), the Tmax was 0.5 h and the Cmax is 349 ng/mL.

The values are drawn from patent publication EP4332093A1, “SALT CONTAINING PIPERAZINE POLYCYCLIC DERIVATIVE, CRYSTAL FORM THEREOF, PREPARATION METHOD THEREFOR, AND USE THEREOF” (Shanghai Hansoh Biomedical Co., Ltd., priority 2021, dated 2022).
